The values that follow come from patent US20090048310A1, “AGENT FOR PREVENTION/TREATMENT OF DISEASE CAUSED BY ACYCLOVIR-RESISTANT HERPESVIRUS” (ASTELLAS PHARMA INC., priority 2005, published 2009).

One test has as its system HSV-1 strain WT-51. The experiment in a line: Cutaneous HSV-1 infection mouse model. The class given is in vivo, HR-1 hairless mouse. The settings on record: oral, 10 mg/kg twice a day for 5 days, scores for 17 days. As to the method:
Using a cutaneous HSV-1 infection mouse model prepared in reference to the method of H. Machida et al. (Antiviral Res., 1992, 17, 133-143), the in vivo […] of the compounds of the present invention was tested using an animal model. The skin of each HR-1 hairless mouse [female, 7 weeks of age] was scratched lengthwise and breadthwise several times using a needle and a virus suspension (HSV-1 strain WT-51, 1.5×10^4 PFU/15 μl) was dropped to the scarified region for infection, while anesthetized with diethyl ether.
Tested compounds were administered orally as a methyl cellulose suspension, except for compounds marked with asterisk which were dissolved in 20% Cremophor EL (Nacalai Tesque)/20% polyethylene glycol (PEG) 400/60% H2O solution, starting at 3 hours after the infection, and then at a dose of 10 mg/kg twice a day for 5 days. The symptom of the skin lesion caused by HSV-1 infection were classified in the following scores for 17 days:
Score 0: no signs of infection.
Score 1: localized, barely perceptible small vesicles.
Score 2: slight vesicle spread.
Score 3: large patches of vesicles formed.
Score 4: zosteriform vesicles.
Score 5: large patches of ulcers formed.
Score 6: zosteriform with severe large ulcers.
Score 7: hind limb paralysis or death.
The AUC value was calculated from each group's mean disease score, and the disease inhibitory rate of the group administered with each test compound to the placebo group was calculated using the AUC.

For another test, the system named is ACV-resistant HSV-1. The experiment in a line: ACV-resistant HSV-1 infection lethal model in nude mice. The class given is in vivo, nude mouse (CD-1(ICR)-nu/nu). The settings on record: 100 mg/kg oral twice a day for 15 days. The protocol: ACV-resistant HSV-1 (3×10^6 pfu) was inoculated into the peritoneal cavity of each nude mouse (CD-1(ICR)-nu/nu, […], female, Charles River Japan) to cause infection with the virus. Each compound to be tested was made into a methyl cellulose suspension and orally administered at a dose of 100 mg/kg, twice a day for 15 days starting 1 hour after the infection (from 0 to 14 days after the infection).
During 17 days after the infection, death of the mice caused by ACV-resistant HSV-1 infection was observed every day, and the number of survived animals was counted.

[1] abbreviates: dissolved in 20% Cremophor EL/20% PEG 400/60% H2O (asterisk).

Consider `Cc1cccc(C)c1N(CC(=O)Nc1ccc(-c2cocn2)cc1)C(=O)C1CCS(=O)(=O)CC1` [Preparation 1, N-(2,6-dimethylphenyl)-N-(2-{[4-(1,3-oxazol-4-yl)phenyl]amino}-2-oxoethyl)tetrahydro-2H-thiopyran-4-carboxamide 1,1-dioxide], for which, in the test with HSV-1 strain WT-51 (setting [1]), the “Inhibition ratio (%) (disease inhibitory rate vs placebo from AUC of mean disease score)” value (“Inhibition ratio (%)” for short) is “* 93%”.
As for `Cc1ccc(N(CC(=O)Nc2ccc(-c3cocn3)cc2)C(=O)C2CCS(=O)(=O)CC2)c(F)c1` [Preparation 20, N-(2-fluoro-4-methylphenyl)-N-(2-{[4-(1,3-oxazol-4-yl)phenyl]amino}-2-oxoethyl)tetrahydro-2H-thiopyran-4-carboxamide 1,1-dioxide], in the test with HSV-1 strain WT-51 (methyl cellulose suspension), the “Inhibition ratio (%)” value is reported as 91%.
For the molecule `Cc1c(F)cc(N(CC(=O)Nc2ccc(-c3cocn3)cc2)C(=O)C2CCS(=O)(=O)CC2)cc1F` [Preparation 19, N-(3,5-difluoro-4-methylphenyl)-N-(2-{[4-(1,3-oxazol-4-yl)phenyl]amino}-2-oxoethyl)tetrahydro-2H-thiopyran-4-carboxamide 1,1-dioxide], the “Inhibition ratio (%)” value in the test with HSV-1 strain WT-51 (methyl cellulose suspension) turned out to be 71%.
Regarding `Cc1cc(N(CC(=O)Nc2ccc(-c3cocn3)cc2)C(=O)C2CCS(=O)(=O)CC2)ccc1Cl` [Preparation 13, N-(4-chloro-3-methylphenyl)-N-(2-{[4-(1,3-oxazol-4-yl)phenyl]amino}-2-oxoethyl)tetrahydro-2H-thiopyran-4-carboxamide 1,1-dioxide], the “Inhibition ratio (%)” value in the test with HSV-1 strain WT-51 (methyl cellulose suspension) was determined as 89%.
On the same count and under the same terms, to `Cc1ccc(N(CC(=O)Nc2ccc(-c3ncon3)cc2)C(=O)C2CCS(=O)(=O)CC2)c(C)c1F` [Preparation 39, N-(3-fluoro-2,4-dimethylphenyl)-N-(2-{[4-(1,2,4-oxadiazol-3-yl)phenyl]amino}-2-oxoethyl)tetrahydro-2H-thiopyran-4-carboxamide 1,1-dioxide] belongs 80%.
For the molecule `Nc1nc(-c2ccc(NC(=O)CN(C(=O)C3CCS(=O)(=O)CC3)c3ccc4c(c3)CCC4)cc2)cs1` [Comparative compound D, reference compound], the “Inhibition ratio (%)” value in the test on HSV-1 strain WT-51 (methyl cellulose suspension) was found to be 43%.
On the same count and under the same terms, to `Cc1cccc(N(CC(=O)Nc2ccc(-c3ncon3)cc2)C(=O)C2CCS(=O)(=O)CC2)c1C` [Preparation 24, N-(2,3-dimethylphenyl)-N-(2-{[4-(1,2,4-oxadiazol-3-yl)phenyl]amino}-2-oxoethyl)tetrahydro-2H-thiopyran-4-carboxamide 1,1-dioxide] belongs 89%.
Turning to `Cc1cc(F)cc(C)c1N(CC(=O)Nc1ccc(-c2ncon2)cc1)C(=O)C1CCS(=O)(=O)CC1` [Preparation 31, N-(4-fluoro-2,6-dimethylphenyl)-N-(2-{[4-(1,2,4-oxadiazol-3-yl)phenyl]amino}-2-oxoethyl)tetrahydro-2H-thiopyran-4-carboxamide 1,1-dioxide], the “Inhibition ratio (%)” value with HSV-1 strain WT-51 (setting [1]) is recorded as “* 86%”.
For the molecule `Cc1ccc(N(CC(=O)Nc2ccc(-c3cocn3)cc2)C(=O)C2CCS(=O)(=O)CC2)c(C)c1F` [Preparation 17, N-(3-fluoro-2,4-dimethylphenyl)-N-(2-{[4-(1,3-oxazol-4-yl)phenyl]amino}-2-oxoethyl)tetrahydro-2H-thiopyran-4-carboxamide 1,1-dioxide], in the test with HSV-1 strain WT-51 (methyl cellulose suspension), the “Inhibition ratio (%)” value is recorded as 94%.
Turning to `O=C(CN(C(=O)C1CCS(=O)(=O)CC1)c1ccc2c(c1)CCC2)Nc1ccc(-c2ncon2)cc1` [Preparation 33, N-(2,3-dihydro-1H-inden-5-yl)-N-(2-{[4-(1,2,4-oxadiazol-3-yl)phenyl]amino}-2-oxoethyl)tetrahydro-2H-thiopyran-4-carboxamide 1,1-dioxide], the “Inhibition ratio (%)” value with HSV-1 strain WT-51 (methyl cellulose suspension) is given as 79%.
For `O=C(CN(C(=O)C1CCS(=O)(=O)CC1)c1ccc2c(c1)CCC2)Nc1ccc(-c2cocn2)cc1` [Preparation 11, N-(2,3-dihydro-1H-inden-5-yl)-N-(2-{[4-(1,3-oxazol-4-yl)phenyl]amino}-2-oxoethyl)tetrahydro-2H-thiopyran-4-carboxamide 1,1-dioxide], the “Inhibition ratio (%)” value in the test with HSV-1 strain WT-51 (methyl cellulose suspension) was 92%.
With `Cc1ccc(N(CC(=O)Nc2ccc(-c3cocn3)cc2)C(=O)C2CCS(=O)(=O)CC2)cc1F` [Preparation 14, N-(3-fluoro-4-methylphenyl)-N-(2-{[4-(1,3-oxazol-4-yl)phenyl]amino}-2-oxoethyl)tetrahydro-2H-thiopyran-4-carboxamide 1,1-dioxide], the “Inhibition ratio (%)” value in the test on HSV-1 strain WT-51 (methyl cellulose suspension) came to 98%.
On the same count and under the same terms, to `COc1ccc(N(CC(=O)Nc2ccc(-c3csc(N)n3)cc2)C(=O)C2CCC(O)CC2)cc1` (centres unmarked) [Comparative compound C, reference compound] belongs 44%; to `COc1ccc(N(CC(=O)Nc2ccc(-c3csc(N)n3)cc2)C(=O)C2CCS(=O)(=O)CC2)cc1` [Comparative compound B, reference compound], 2%.
Take `Cc1ccc(N(CC(=O)Nc2ccc(-c3cocn3)cc2)C(=O)C2CCS(=O)(=O)CC2)cc1C` [Preparation 8, N-(3,4-dimethylphenyl)-N-(2-{[4-(1,3-oxazol-4-yl)phenyl]amino}-2-oxoethyl)tetrahydro-2H-thiopyran-4-carboxamide 1,1-dioxide]: the “Inhibition ratio (%)” value with HSV-1 strain WT-51 (methyl cellulose suspension) stood at 91%.
For `Cc1ccc(N(CC(=O)Nc2ccc(-c3ncon3)cc2)C(=O)C2CCS(=O)(=O)CC2)c(C)c1` [Preparation 25, N-(2,4-dimethylphenyl)-N-(2-{[4-(1,2,4-oxadiazol-3-yl)phenyl]amino}-2-oxoethyl)tetrahydro-2H-thiopyran-4-carboxamide 1,1-dioxide], the “Inhibition ratio (%)” value in the test with HSV-1 strain WT-51 (setting [1]) was “* 70%”.
Take `Cc1ccc(N(CC(=O)Nc2ccc(-c3cocn3)cc2)C(=O)C2CCS(=O)(=O)CC2)c(C)c1` [Preparation 6, N-(2,4-dimethylphenyl)-N-(2-{[4-(1,3-oxazol-4-yl)phenyl]amino}-2-oxoethyl)tetrahydro-2H-thiopyran-4-carboxamide 1,1-dioxide]: the “Inhibition ratio (%)” value in the test with HSV-1 strain WT-51 (methyl cellulose suspension) worked out at 92%.
Same read-out and setting: to `Cc1ccccc1N(CC(=O)Nc1ccc(-c2cocn2)cc1)C(=O)C1CCS(=O)(=O)CC1` [Preparation 4, N-(2-methylphenyl)-N-(2-{[4-(1,3-oxazol-4-yl)phenyl]amino}-2-oxoethyl)tetrahydro-2H-thiopyran-4-carboxamide 1,1-dioxide] belongs 77%; to `Nc1nc(-c2ccc(NC(=O)CN(C(=O)c3ccc(F)cc3)c3ccc4ncsc4c3)cc2)cs1` [Comparative compound A, reference compound], 38%.
Consider `CC(C)[C@H](N)C(=O)OCCOCn1cnc2c(=O)nc(N)[nH]c21` [VCV, valcyclovir, reference compound], for which the “death suppressing effect (in words)” value with ACV-resistant HSV-1 (17 days after infection) was “clear death suppressing effect was not found”. The “The number of survived animals (n = 10)” value in the test on ACV-resistant HSV-1 (day 0 after infection), with ACV-resistant HSV-1 (day 1 after infection), in the test with ACV-resistant HSV-1 (day 2 after infection), in the test on ACV-resistant HSV-1 (day 4 after infection), in the test with ACV-resistant HSV-1 (day 5 after infection) and in the test with ACV-resistant HSV-1 (day 6 after infection) was 10 throughout. Moreover, the “The number of survived animals (n = 10)” value in the test with ACV-resistant HSV-1 (day 7 after infection) came out at 9; in the test with ACV-resistant HSV-1 (day 8 after infection), 8; in the test with ACV-resistant HSV-1 (day 9 after infection), 4; with ACV-resistant HSV-1 (day 10 after infection), 2; with ACV-resistant HSV-1 (day 11 after infection) it was 2; in the test with ACV-resistant HSV-1 (day 12 after infection), 2. For the same molecule, the “The number of survived animals (n = 10)” value in the test with ACV-resistant HSV-1 (day 14 after infection), in the test with ACV-resistant HSV-1 (day 16 after infection) and in the test on ACV-resistant HSV-1 (day 17 after infection) was 2 throughout.
